Consider one substance from US20030073872A1, “Hexameric complexes and their preparation” (priority 2001, published 2003).

The series can be described thus: NMR check of guest exchange in a sealed tube heated to 150° C. To be noted: sealed NMR tube heated to 150° C., about 1.4 atmospheres, d^6-acetone. The series is classed as physicochemical. On the procedure:
Nuclear magnetic resonance (NMR) spectroscopic investigations were carried out to verify the existence of the spheroidal hexamer in solution. […] FIG. […] The enlarged inset in FIG. 3 is the region of the spectrum displaying the methanol resonances. The peak assignments a, b, and c in the enlarged inset are for diaryl C—H, CH3 of the methanol guest, and CH3 of the methanol in the bulk solvent, respectively. Peak assignments d, e, and f are for the CH2 moiety adjacent to CH in the bridging group, the remaining CH2 groups, and the terminal CH3 group, respectively, on the R substituent. Peak g is the TMS internal standard.
The most significant features in the spectrum of FIG. 3 are the two methanol peaks, b and c, indicating, respectively, the methanol trapped within the hexameric spheroidal assembly and the methanol in the bulk solvent. Similar work was carried out in d^6-acetone, d^6-dimethyl sulfoxide, and d^8-toluene.

For C-tridecylpyrogallol(4)arene, the “stability of guest/host assembly (methanol guest does not exchange with bulk solvent)” value was “stable”.
